Biological target: Neuraminidase (Influenza A virus, UniProt B4URF0)
Design: species or system unidentified adenovirus

Sequence of Neuraminidase (B4URF0 whole entry): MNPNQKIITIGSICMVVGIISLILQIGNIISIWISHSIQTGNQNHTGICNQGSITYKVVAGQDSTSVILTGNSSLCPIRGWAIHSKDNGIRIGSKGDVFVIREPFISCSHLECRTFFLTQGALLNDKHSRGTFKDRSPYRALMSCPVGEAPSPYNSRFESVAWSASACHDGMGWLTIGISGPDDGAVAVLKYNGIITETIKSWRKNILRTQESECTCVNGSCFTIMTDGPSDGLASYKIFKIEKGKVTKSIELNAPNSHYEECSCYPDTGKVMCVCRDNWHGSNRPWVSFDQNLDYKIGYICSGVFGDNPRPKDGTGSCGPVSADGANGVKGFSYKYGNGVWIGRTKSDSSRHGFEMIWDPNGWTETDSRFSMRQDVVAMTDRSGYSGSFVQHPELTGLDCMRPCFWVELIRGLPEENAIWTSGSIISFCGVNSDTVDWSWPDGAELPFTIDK

In the case of `CCC(CC)[C@H](NC(C)=O)[C@@H]1[C@H](O)[C@@H](C(=O)O)C[C@H]1NC(=N)N` [PERAMIVIR ANHYDROUS], the IC50 is reported as 0.1 nM.

From ChEMBL document CHEMBL3596116, “Conformational analysis of peramivir reveals critical differences between free and enzyme-bound states” (Medchemcomm, 2014)
